{"source": "patent US8685394B2", "about": "“Combination of anti-CTLA4 antibody with diverse therapeutic regimens for the synergistic treatment of proliferative diseases” (Bristol-Myers Squibb Company, priority 2008, dated 2014)", "key": {"M109 lung carcinoma [1]": {"tested_on": "M109 lung carcinoma", "assay": "M109 lung carcinoma subcutaneous tumor model", "type": "in vivo, murine", "details": "for CR / T-C (1000 mm^3) / PR / % TGI (Average): M109 s.c.; for CR: complete regression = non-palpable tumor for ≧2 assessments; for T-C (1000 mm^3): number of days to reach target tumor size 1000 mm^3, doses and schedules of Table 1; for PR: partial regression = 50% reduction in tumor volume for ≧2 assessments; for % TGI (Average): percent tumor growth inhibition, each treatment at dose (mg/kg) and schedule (study days) of Table 1", "protocol": "(§1) All compounds were tested at their optimal dose and schedule. When used in combination, CTLA-4 mAb was initiated one day after the first dose of chemotherapy. Percent tumor growth inhibition and number of days to reach target tumor size were used to evaluate efficacy. Antitumor activity was scored as: complete regression (CR; non-palpable tumor for ≧2 assessments) or partial regression (PR; 50% reduction in tumor volume for ≧2 assessments)."}, "M109 lung metastasis": {"tested_on": "M109 lung metastasis", "assay": "M109 lung carcinoma model of experimental pulmonary metastasis", "type": "in vivo, murine", "details": "doses and schedules of Table 2, control vehicle 32"}, "SA1N fibrosarcoma [2]": {"tested_on": "SA1N fibrosarcoma", "assay": "SA1N fibrosarcoma subcutaneous tumor model", "type": "in vivo, murine", "details": "SA1N s.c.; for % TGI (Average D 20-48): average of days 20-48, doses and schedules of Table 3; for CR: mice with complete regression / mice in group; for PR: mice with partial regression / mice in group; for T-C (1000 mm^3): number of days to reach target tumor size 1000 mm^3", "protocol": "as §1"}, "CT26 colon carcinoma [3]": {"tested_on": "CT26 colon carcinoma", "assay": "CT26 colon carcinoma subcutaneous tumor model", "type": "in vivo, murine", "details": "for % TGI (Average) / CR / PR / T-C (1000 mm^3): CT26 s.c.; for % TGI (Average): doses and schedules of Table 4; for CR: mice with complete regression / mice in group; for PR: mice with partial regression / mice in group; for T-C (1000 mm^3): number of days to reach target tumor size 1000 mm^3", "protocol": "as §1"}, "tumor models": {"tested_on": "tumor models", "assay": "Antitumor activity in murine tumor models, model not stated (FIG. 6, 8, 9, 10; summary)", "type": "in vivo", "details": "concurrent treatment"}, "[4]": {"tested_on": "immune cells in tumor-draining lymph nodes", "assay": "Composition of immune cells in tumor-draining lymph nodes (FIG. 13)", "type": "in vivo"}, "in vivo cytotoxicity": {"tested_on": "in vivo cytotoxicity", "details": "FIG. 12"}, "SA1N fibrosarcoma [5]": {"tested_on": "SA1N fibrosarcoma", "details": "dasatinib 30 mg/kg daily or 5 days on/2 days off, concurrent CTLA-4 mAb"}, "CT26 colon carcinoma [6]": {"tested_on": "CT26 colon carcinoma", "details": "dasatinib 30 mg/kg, concurrent CTLA-4 mAb"}, "M109 lung carcinoma [7]": {"tested_on": "M109 lung carcinoma", "details": "dasatinib with CTLA-4 mAb"}, "P815 mastocytoma": {"tested_on": "P815 mastocytoma", "details": "SPRYCEL 30 mg/kg P.O., anti-CTLA-4 mAb IP days 10, 14, 18"}, "T-cell function": {"tested_on": "T-cell function", "details": "in vitro; concentrations of 10-50 nM; inhibition of cytokine secretion and degranulation; Weischel et al., 2008; cited from earlier work"}, "T-cell activation": {"tested_on": "T-cell activation", "details": "Schade et al., 2007; cited from earlier work"}, "STAT3": {"tested_on": "STAT3", "details": "Yu, H. et al., 2007; cited from earlier work"}, "[8]": {"details": "CT26 colon carcinoma, established tumors"}}, "note": "“Also recorded” adds a separate entry of the source. Where two headings read alike, the source gives them in different places.", "data": [{"compound": "Cl.Nc1ccn([C@@H]2O[C@H](CO)[C@@H](O)C2(F)F)c(=O)n1", "note": "(single isomer, unassigned) [Gemcitabine, 2′-deoxy-2′,2′-difluorocytidine monohydrochloride (β-isomer)]", "values": [{"measurement": "CR", "setting": "M109 lung carcinoma [1]", "result": 0}, {"measurement": "T-C (1000 mm^3)", "setting": "M109 lung carcinoma [1]", "result": 2.2}, {"measurement": "PR", "setting": "M109 lung carcinoma [1]", "result": 0}, {"measurement": "% TGI (Average)", "setting": "M109 lung carcinoma [1]", "result": 32, "unit": "%"}, {"measurement": "antitumor activity / combination effect, in words", "setting": "M109 lung carcinoma [1]; M109 subcutaneous tumor model", "result": "modestly sensitive; also recorded: did not produce significant antitumor activity"}, {"measurement": "antitumor activity / combination effect, in words", "setting": "M109 lung carcinoma [1]; M109 subcutaneous tumor model, listed as Gem", "result": "modestly sensitive; also recorded: did not produce significant M109 antitumor activity"}, {"measurement": "Median Survival Time", "setting": "M109 lung metastasis", "result": 42, "unit": "days"}, {"measurement": "% TGI (Average D 20-48)", "setting": "SA1N fibrosarcoma [2]", "result": 68, "unit": "%"}, {"measurement": "CR", "setting": "SA1N fibrosarcoma [2]", "result": "0/8"}, {"measurement": "PR", "setting": "SA1N fibrosarcoma [2]", "result": "0/8"}, {"measurement": "T-C (1000 mm^3)", "setting": "SA1N fibrosarcoma [2]", "result": 11}, {"measurement": "antitumor activity / combination effect, in words", "setting": "CT26 colon carcinoma [3]; [8]", "result": "effective as single agents"}, {"measurement": "% TGI (Average)", "setting": "CT26 colon carcinoma [3]", "result": 102, "unit": "%"}, {"measurement": "CR", "setting": "CT26 colon carcinoma [3]", "result": "2/8"}, {"measurement": "PR", "setting": "CT26 colon carcinoma [3]", "result": "0/8"}, {"measurement": "T-C (1000 mm^3)", "setting": "CT26 colon carcinoma [3]", "result": 12}, {"measurement": "CTLA-4 blockade activity under concurrent chemotherapy", "setting": "tumor models", "result": "not abolished"}, {"measurement": "composition of immune cells in tumor-draining lymph nodes", "setting": "[4]", "result": "modulates the composition of immune cells"}, {"measurement": "in vivo cytotoxicity", "setting": "in vivo cytotoxicity", "result": "promote in vivo cytotoxicity"}]}, {"compound": "Cc1nc(Nc2ncc(C(=O)Nc3c(C)cccc3Cl)s2)cc(N2CCN(CCO)CC2)n1", "note": "[dasatinib, N-(2-chloro-6-methylphenyl)-2-[[6-[4-(2-hydroxyethyl)-1-piperazinyl]-2-methyl-4-pyrimidinyl]amino]-5-thiazolecarboxamide]", "values": [{"measurement": "antitumor activity / combination effect, in words", "setting": "SA1N fibrosarcoma [5]", "result": "modest antitumor activity"}, {"measurement": "antitumor activity / combination effect, in words", "setting": "CT26 colon carcinoma [6]", "result": "minimal activity"}, {"measurement": "antitumor activity / combination effect, in words", "setting": "M109 lung carcinoma [7]", "result": "minimal activity"}, {"measurement": "antitumor activity / combination effect, in words", "setting": "P815 mastocytoma", "result": "modest antitumor activity"}, {"measurement": "effect on T-cell function", "setting": "T-cell function", "result": "inhibits T-cell function"}, {"measurement": "effect on T-cell activation", "setting": "T-cell activation", "result": "blockade of T-cell activation"}, {"measurement": "inhibition of STAT3", "setting": "STAT3", "result": "potent inhibition of STAT3"}]}, {"compound": "4′-Demethylepipodophyllotoxin 9-[4,6-O-(R)-ethylidene-β-D-glucopyranoside], 4′-(dihydrogen phosphate) [Etoposide]", "values": [{"measurement": "CR", "setting": "M109 lung carcinoma [1]", "result": 0}, {"measurement": "T-C (1000 mm^3)", "setting": "M109 lung carcinoma [1]", "result": 9}, {"measurement": "PR", "setting": "M109 lung carcinoma [1]", "result": 0}, {"measurement": "% TGI (Average)", "setting": "M109 lung carcinoma [1]", "result": 59, "unit": "%"}, {"measurement": "antitumor activity / combination effect, in words", "setting": "M109 lung carcinoma [1]; M109 subcutaneous tumor model", "result": "modestly sensitive"}, {"measurement": "Median Survival Time", "setting": "M109 lung metastasis", "result": 34, "unit": "days"}, {"measurement": "% TGI (Average D 20-48)", "setting": "SA1N fibrosarcoma [2]", "result": 88, "unit": "%"}, {"measurement": "CR", "setting": "SA1N fibrosarcoma [2]", "result": "0/8"}, {"measurement": "PR", "setting": "SA1N fibrosarcoma [2]", "result": "1/8"}, {"measurement": "T-C (1000 mm^3)", "setting": "SA1N fibrosarcoma [2]", "result": 14}, {"measurement": "antitumor activity / combination effect, in words", "setting": "CT26 colon carcinoma [3]; [8]", "result": "effective as single agents"}, {"measurement": "% TGI (Average)", "setting": "CT26 colon carcinoma [3]", "result": 66, "unit": "%"}, {"measurement": "CR", "setting": "CT26 colon carcinoma [3]", "result": "1/8"}, {"measurement": "PR", "setting": "CT26 colon carcinoma [3]", "result": "0/8"}, {"measurement": "T-C (1000 mm^3)", "setting": "CT26 colon carcinoma [3]", "result": 11}, {"measurement": "CTLA-4 blockade activity under concurrent chemotherapy", "setting": "tumor models", "result": "not abolished"}]}, {"compound": "CC(=O)O[C@H]1C(=O)[C@@]2(C)[C@H]([C@H](OC(=O)c3ccccc3)[C@]3(O)C[C@H](OC(=O)[C@H](O)[C@@H](NC(=O)c4ccccc4)c4ccccc4)C(C)=C1C3(C)C)[C@]1(OC(C)=O)CO[C@@H]1C[C@@H]2O", "note": "[Paclitaxel, 5beta,20-Epoxy-1,2alpha,4,7beta,10beta,13alpha-hexahydroxytax-11-en-9-one 4,10-diacetate 2-benzoate 13-ester with (2R,3S)-N-benzoyl-3-phenylisoserine]", "values": [{"measurement": "CR", "setting": "M109 lung carcinoma [1]", "result": 0}, {"measurement": "T-C (1000 mm^3)", "setting": "M109 lung carcinoma [1]", "result": 5}, {"measurement": "PR", "setting": "M109 lung carcinoma [1]", "result": 0}, {"measurement": "% TGI (Average)", "setting": "M109 lung carcinoma [1]", "result": 45, "unit": "%"}, {"measurement": "antitumor activity / combination effect, in words", "setting": "M109 lung carcinoma [1]; mouse, in vivo, sc", "result": "modestly sensitive"}, {"measurement": "Median Survival Time", "setting": "M109 lung metastasis", "result": 38, "unit": "days"}, {"measurement": "% TGI (Average D 20-48)", "setting": "SA1N fibrosarcoma [2]", "result": 65, "unit": "%"}, {"measurement": "CR", "setting": "SA1N fibrosarcoma [2]", "result": "0/8"}, {"measurement": "PR", "setting": "SA1N fibrosarcoma [2]", "result": "0/8"}, {"measurement": "T-C (1000 mm^3)", "setting": "SA1N fibrosarcoma [2]", "result": 13}, {"measurement": "% TGI (Average)", "setting": "CT26 colon carcinoma [3]", "result": 0, "unit": "%"}, {"measurement": "CR", "setting": "CT26 colon carcinoma [3]", "result": "0/8"}, {"measurement": "PR", "setting": "CT26 colon carcinoma [3]", "result": "0/8"}, {"measurement": "T-C (1000 mm^3)", "setting": "CT26 colon carcinoma [3]", "result": 0}, {"measurement": "antitumor activity / combination effect, in words", "setting": "CT26 colon carcinoma [3]; mouse, in vivo", "result": "ineffective"}, {"measurement": "CTLA-4 blockade activity under concurrent chemotherapy", "setting": "tumor models", "result": "not abolished"}]}]}
